# According to US20150105252A1, “SUBSTITUTED PYRAZOLES AS HERBICIDES” (E I DU PONT DE NEMOURS AND COMPANY, priority 2013, published 2015):
# What was measured:
# Conditions in all cases: scale 0 to 100
# [1] = system: field violet; assay: Test D preemergence; type: in vivo, Viola arvensis
# Source text: (§1) Seeds of plant species selected from bluegrass (annual bluegrass, Poa annua), blackgrass (Alopecurus myosuroides), canarygrass (littleseed canarygrass, Phalaris minor), chickweed (common chickweed, Stellaria media), galium (catchweed bedstraw, Galium aparine), bromegrass, downy (downy bromegrass, Bromus tectorum), field poppy (Papaver rhoeas), field violet (Viola arvensis), foxtail, green (green foxtail, Setaria viridis), deadnettle (henbit deadnettle, Lamium amplexicaule), ryegrass, Italian (Italian ryegrass, Lolium multiflorum), kochia (Kochia scoparia), lambsquarters (Chenopodium album), oilseed rape (Brassica napus), pigweed (redroot pigweed, Amaranthus retroflexus), chamomile (scentless chamomile, Matricaria inodora), speedwell (bird's-eye speedwell, Veronica persica), barley, spring (spring barley, Hordeum vulgare), wheat, spring (spring wheat, Triticum aestivum), buckwheat, wild (wild buckwheat, Polygonum convolvulus), mustard, wild (wild mustard, Sinapis arvensis), oat, wild (wild oat, Avena fatua), radish, wild (wild radish, Raphanus raphanistrum), windgrass (Apera spica-venti), Russian thistle (Salsola kali), barley, winter (winter barley, Hordeum vulgare), and wheat, winter (winter wheat, Triticum aestivum) were planted into a silt loam soil and treated preemergence with test chemicals formulated in a non-phytotoxic solvent mixture which included a surfactant.
# (§2) At the same time, these species were planted in pots containing Redi-Earth® planting medium (Scotts Company, 14111 Scottslawn Road, Marysville, Ohio 43041) comprising spaghnum peat moss, vermiculite, wetting agent and starter nutrients and treated with postemergence applications of the test chemicals formulated in the same manner. Plants ranged in height from 2 to 18 cm (1- to 4-leaf stage). Treated plants and controls were maintained in a controlled growth environment for 14 to 21 days after which time all species were compared to controls and visually evaluated. Plant response ratings, summarized in Table D, are based on a scale of 0 to 100 where 0 is no effect and 100 is complete control. A dash (-) response means no test result.
# [2] = system: speedwell; assay: Test D postemergence; type: in vivo, Veronica persica
# Source text: as §1, §2
# [3] = system: oilseed rape; assay: Test D postemergence; type: in vivo, Brassica napus
# Source text: as §1, §2
# [4] = system: barley, winter; assay: Test D postemergence; type: in vivo, Hordeum vulgare
# Source text: as §1, §2
# [5] = system: barley, spring; assay: Test D postemergence; type: in vivo, Hordeum vulgare
# Source text: as §1, §2
# [6] = system: blackgrass; assay: Test D preemergence; type: in vivo, Alopecurus myosuroides
# Source text: as §1, §2
# [7] = system: bromegrass, downy; assay: Test D preemergence; type: in vivo, Bromus tectorum
# Source text: as §1, §2
# [8] = system: oilseed rape; assay: Test D preemergence; type: in vivo, Brassica napus
# Source text: as §1, §2
# [9] = system: field poppy; assay: Test D preemergence; type: in vivo, Papaver rhoeas
# Source text: as §1, §2
Structure (SMILES),"Plant response rating, Field Violet ([1]; 62 g ai/ha)","Plant response rating, Field Violet ([1]; 125 g ai/ha)","Plant response rating, Field Violet ([1]; 250 g ai/ha)","Speedwell plant response rating ([2]; Postemergence, 31 g ai/ha)","Speedwell plant response rating ([2]; Postemergence, 125 g ai/ha)","Speedwell plant response rating ([2]; Postemergence, 250 g ai/ha)","Speedwell plant response rating ([2]; postemergence, 62 g ai/ha)","Oilseed Rape plant response rating ([3]; Postemergence, 31 g ai/ha)","Oilseed Rape plant response rating ([3]; Postemergence, 125 g ai/ha)","Oilseed Rape plant response rating ([3]; Postemergence, 250 g ai/ha)","Oilseed Rape plant response rating ([3]; postemergence, 62 g ai/ha)","Barley, Winter plant response rating ([4]; Postemergence, 31 g ai/ha)","Barley, Winter plant response rating ([4]; Postemergence, 125 g ai/ha)","Barley, Winter plant response rating ([4]; Postemergence, 250 g ai/ha)","Barley, Winter plant response rating ([4]; postemergence, 62 g ai/ha)","Barley, Spring plant response rating ([5]; Postemergence, 31 g ai/ha)","Barley, Spring plant response rating ([5]; Postemergence, 125 g ai/ha)","Barley, Spring plant response rating ([5]; Postemergence, 250 g ai/ha)","Barley, Spring plant response rating ([5]; postemergence, 62 g ai/ha)","Plant response rating, Blackgrass ([6]; 62 g ai/ha)",further results
CCc1cc(C(=O)NC(C)C)nn1Cc1ccnc(C(F)(F)F)c1 [Compound 103],100,100,100,35,55,70,45,25,35,45,35,0,5,15,5,0,10,15,0,50,"Plant response rating, Field Violet ([1]; 31 g ai/ha): 95; Plant response rating, Blackgrass ([6]; 125 g ai/ha): 85; Plant response rating, Blackgrass ([6]; 250 g ai/ha): 100; Plant response rating, Bromegrass, Downy ([7]; 31 g ai/ha): 5; Plant response rating, Bromegrass, Downy ([7]; 62 g ai/ha): 10; Plant response rating, Bromegrass, Downy ([7]; 125 g ai/ha): 40; Plant response rating, Bromegrass, Downy ([7]; 250 g ai/ha): 85; Plant response rating, Oilseed Rape ([8]; 31 g ai/ha): 25; Plant response rating, Oilseed Rape ([8]; 62 g ai/ha): 30; Plant response rating, Oilseed Rape ([8]; 125 g ai/ha): 35; Plant response rating, Oilseed Rape ([8]; 250 g ai/ha): 95; Plant response rating, Field Poppy ([9]; 31 g ai/ha): 100; Plant response rating, Field Poppy ([9]; 62 g ai/ha): 100; Plant response rating, Field Poppy ([9]; 125 g ai/ha): 100; Plant response rating, Field Poppy ([9]; 250 g ai/ha): 100"
CCCc1cc(C(=O)NCC(F)(F)F)nn1Cc1cc(C(F)(F)F)nn1C [Compound 138],100,100,100,100,100,100,100,60,90,100,60,15,20,40,15,15,25,40,15,30,"Plant response rating, Blackgrass ([6]; 31 g ai/ha): 15; Plant response rating, Blackgrass ([6]; 125 g ai/ha): 85; Plant response rating, Blackgrass ([6]; 250 g ai/ha): 100; Plant response rating, Bromegrass, Downy ([7]; 31 g ai/ha): 10; Plant response rating, Bromegrass, Downy ([7]; 62 g ai/ha): 15; Plant response rating, Bromegrass, Downy ([7]; 125 g ai/ha): 20; Plant response rating, Bromegrass, Downy ([7]; 250 g ai/ha): 65; Plant response rating, Oilseed Rape ([8]; 62 g ai/ha): 40; Plant response rating, Oilseed Rape ([8]; 125 g ai/ha): 100; Plant response rating, Oilseed Rape ([8]; 250 g ai/ha): 100; Plant response rating, Field Poppy ([9]; 62 g ai/ha): 100; Plant response rating, Field Poppy ([9]; 125 g ai/ha): 100; Plant response rating, Field Poppy ([9]; 250 g ai/ha): 100"
CCOc1cc(C(=O)NC2CC2)nn1Cc1ccnc(C(F)(F)F)c1 [Compound 189],100,100,100,70,85,90,70,40,55,60,40,15,20,20,15,10,15,25,10,60,"Plant response rating, Blackgrass ([6]; 31 g ai/ha): 35; Plant response rating, Blackgrass ([6]; 125 g ai/ha): 80; Plant response rating, Blackgrass ([6]; 250 g ai/ha): 100; Plant response rating, Bromegrass, Downy ([7]; 31 g ai/ha): 0; Plant response rating, Bromegrass, Downy ([7]; 62 g ai/ha): 15; Plant response rating, Bromegrass, Downy ([7]; 125 g ai/ha): 20; Plant response rating, Bromegrass, Downy ([7]; 250 g ai/ha): 55; Plant response rating, Oilseed Rape ([8]; 62 g ai/ha): 55; Plant response rating, Oilseed Rape ([8]; 125 g ai/ha): 80; Plant response rating, Oilseed Rape ([8]; 250 g ai/ha): 100; Plant response rating, Field Poppy ([9]; 62 g ai/ha): 100; Plant response rating, Field Poppy ([9]; 125 g ai/ha): 100; Plant response rating, Field Poppy ([9]; 250 g ai/ha): 100"
